Reference: patent US20210206820A1 (Purdue Research Foundation, priority 2018, published 2021)
Primed or numbered codes have the meaning given here. Where no end group is shown, it is not given here. [ ]: non-standard residue; d: D form. PEG2′ = PEG2 spacer

Tests used:
[1] = system: fracture callus of fractured femur; test: Femur fracture model, microCT of the fracture callus (BV/TV, TbTh, BV, TbSp); assay type: in vivo, Swiss Webster mice
Description: All in vivo data included herein are from swiss Webster mice. All mice received an osteotomy on their right femur and received subcutaneous drug administration daily for either 2, 3 or 4 weeks, as indicated, for each compound. 1× concentration represents 1 nmol/day, 10× represents 10 nmol/day, 100× represents 100 nmol/day most studies have an n of 5.
The term “BV/TV” means the bone volume divided by total volume of the 100 thickest micro CT slices of the fracture callus.
The term “TbTh” means the trabecular thickness of the 100 thickest micro CT slices of the fracture callus.
The term “[…]” means the overall bone volume of the 100 thickest micro CT slices of the fracture callus.
The term “TbSp” means the spacing between the trabecula in the 100 thickest micro CT slices of the fracture callus.
(§1) The targeted conjugates were synthesized using standard Fmoc solid-phase peptide synthesis, as described above. To ensure the conjugates' activity, mouse pre-osteoblast ([…]) cells were treated with the targeted and untargeted compounds for three days at concentrations from 1 pM to 100 nM. After three days of treatment, the cells were harvested, and the RNA was purified from the cells. Expression levels of ALP, RUNx2 (transcription factor for osteoblast differentiation), osterix (OSX), osteopontin (OPN), collagen 1A (Col-1A), OPG, RANKL, sclerostin gene (SOST), and OC were quantified via quantitative reverse transcription polymerase chain reaction (RT-qPCR). Once the biological activity of the conjugates was confirmed, they were tested in vivo in a fracture model. Aseptic surgical techniques were used to place a 23-gage needle as in intramedullary nail in the femur of anesthetized, 12-week-old Swiss Webster mice for internal fixation before fracture. Femur fractures were induced using a drop weight fracture device from RISystem. The mice received buprenorphine for three days post fracture. The mice were dosed subcutaneously each day for three weeks or 17 days. Fracture healing was assessed using microCT (Scanco Medical Ag). Morphometric parameters were quantified in the 100 widest slices of the fracture callus. Trabecular thickness (TbTh), trabecular spacing (TbSp), total volume (TV), and volume of calcified callus (BV) were calculated. Fractured femurs were tested for strength in a four-point bend to failure using an Electro Force TestBench (TA Instruments). Lower supports were 10 mm apart on the anterior face of the femur in contact with the proximal and distal diaphysis. Upper supports were 4 mm apart and spanned the entire fracture callus on the diaphysis. Force was applied from the posterior face of the femur with a displacement rate of 0.3 mm/sec. Peak load, yield load, stiffness, displacement post yield, work to fracture, and deformation data were generated. Statistical analysis was performed using a two-way analysis of variance (ANOVA) and a Tukey post-hoc analysis with significance reported at the 95% confidence level. All animal experiments were performed in accordance with protocols approved by Purdue University's Institutional Animal Care and Use Committee (IACUC).

[2] = system: healed fractured femur; test: Postmortem four-point bend of the healed femur (peak/max load, stiffness, work to fracture); assay type: in vivo, Swiss Webster mice; conditions: for Bone strength (Max Load, Work to Fracture): n=5
Method: The term “Peak Load” means a postmortem 4 point bend of the healed femur. Peak load represents the maximum force the healed femur withstood before it refractured.
as §1, with “The mice were dosed subcutaneously each day for three weeks or 17 days.” left out
Referring to FIGS. 26a, 26b, and 26c, in vivo fracture healing efficacy of VIP_mp4_(D)E10 conjugate on Swiss Webster fracture-bearing mice (n=5) after 3 weeks was reflected as BV/TV, Max Load, and Work to Fracture respectively. […]

[3] = system: fracture callus of fractured femur; test: Femur fracture model, microCT of the fracture callus (BV/TV, TbTh, BV, TbSp); assay type: in vivo, Swiss Webster mice; conditions: local injections
[4] = system: pre-osteoblastic cell line MC3T3-E1; test: Alkaline phosphatase (ALP) activity of pre-osteoblastic cells after 7 days exposure; assay type: cell-based, mouse; conditions: 0.1-5 nM in culture media for 7 days, vs DMSO alone
[5] = target: T1, VPAC-1 (Homo sapiens, UniProt P32241); conditions: VIP compared with PACAP; cited from earlier work
T1 sequence (P32241 31-457): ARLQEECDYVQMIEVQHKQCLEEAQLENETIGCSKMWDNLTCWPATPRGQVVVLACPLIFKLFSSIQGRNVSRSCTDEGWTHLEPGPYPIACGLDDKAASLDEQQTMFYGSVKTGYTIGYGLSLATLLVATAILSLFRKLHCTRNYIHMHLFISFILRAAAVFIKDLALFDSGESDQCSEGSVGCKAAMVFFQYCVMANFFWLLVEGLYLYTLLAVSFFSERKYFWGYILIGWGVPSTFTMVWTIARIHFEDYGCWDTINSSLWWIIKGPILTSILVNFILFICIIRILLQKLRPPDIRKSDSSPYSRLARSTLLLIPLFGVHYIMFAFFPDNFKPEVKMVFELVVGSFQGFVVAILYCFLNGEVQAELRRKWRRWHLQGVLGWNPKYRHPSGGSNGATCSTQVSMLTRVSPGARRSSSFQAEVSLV

[6] = target: T2, VPAC-2 (Homo sapiens, UniProt P41587); conditions: VIP compared with PACAP; cited from earlier work
T2 sequence (P41587 24-438): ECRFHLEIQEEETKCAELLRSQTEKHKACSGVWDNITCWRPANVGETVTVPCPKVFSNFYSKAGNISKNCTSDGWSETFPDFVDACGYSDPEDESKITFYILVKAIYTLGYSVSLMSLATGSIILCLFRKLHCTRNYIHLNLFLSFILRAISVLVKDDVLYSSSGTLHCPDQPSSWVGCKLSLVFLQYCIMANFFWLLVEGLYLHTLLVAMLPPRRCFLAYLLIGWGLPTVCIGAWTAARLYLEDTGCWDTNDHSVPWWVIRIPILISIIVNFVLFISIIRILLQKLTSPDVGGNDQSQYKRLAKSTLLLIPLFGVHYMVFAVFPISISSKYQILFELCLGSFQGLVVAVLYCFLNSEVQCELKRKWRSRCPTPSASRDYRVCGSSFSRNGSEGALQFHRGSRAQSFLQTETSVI

[7] = 2 weeks, daily sc, 1 to 100 nmol/day
[8] = 4 weeks, daily sc, various concentrations from 1 to 100 nmol/day
[9] = 3 weeks, 0.1, 1, 10 nmol per day sc, n=5

Q: Which “Bone volume (BV)” value ([1]; 2 weeks, daily sc, 1, 10, 100 nmol/day) does the source give for “Preptin-D10: Preptin conjugated with 10 aspartate acids, SEQ ID NO: 3 (HDVSTSQAVLPDDFPRYDDDDDDDDDD; Preptin D10)” here?
A: dose dependent manner

Q: And the BV/TV [1, 7]?
A: dose dependent manner

Q: And the TbTh [1, 7]?
A: dose dependent manner

Q: With “OGP-D10: osteogenic growth peptide conjugated with 10 aspartate acids, SEQ ID NO: 2 DDDDDDDDDDALKRQGRTLYGFGG (OGP D10)” as the compound, how does the BV/TV [1, 7] read?
A: dose dependent manner

Q: And the TbSp [1, 7]?
A: dose dependent manner

Q: What about the TbTh [1, 7] of the same compound?
A: dose dependent manner

Q: For “Amylin(1-8)-D10: amino acid 1-8 of native amylin attached to 4 peg2 spacers then ten aspartic acid (KCNTATCA[PEG2′][PEG2′][PEG2′][PEG2′]DDDDDDDDDD; not fully specified (bridges); ends and bridges not checked; UniProt P10997 34-41, looked up, fragment)”, which “Bone density (BV/TV) at the fracture calluses” value ([1]; 3 weeks, 1, 10, 100 nmol per day sc, n=5) is on record?
A: raises bone density

Q: And the “Bone strength (Max Load, Work to Fracture)” value ([2]; 3 weeks, 1, 10, 100 nmol per day sc)?
A: improves bone strength

Q: Which BV/TV ([1]; 3 weeks, 0.1, 1 and 10 nmol/day) does the source give for “CBM D10: collagen binding motif of osteopontin conjugated with 10 aspartate acids” here?
A: dose dependent manner

Q: For `Cc1ncc(CO)c(C)c1O` [DOP, 4-deoxypyridoxine], which Fracture healing [3] is on record?
A: acceleration of fracture healing

Q: With “BFP-D10: bone forming peptide conjugated with 10 aspartate acids, SEQ ID NO: 1 DDDDDDDDDDGQGFSYPYKAVFSTQ (BFP D10)” as the compound, how does the BV/TV [1, 7] read?
A: dose dependent manner

Q: And the TbSp [1, 7]?
A: dose dependent manner

Q: What about the “Peak load of fractured femurs, ranking as compared to PBS” value ([2]; 100 nmol/day (100×), after 2 weeks) of the same compound?
A: obtained the maximum peak load

Q: For “pBMP9 D10: 23-residue peptide from the knuckle epitope of human BMP-9 targeted with D10 (CGGKVGKACCVPTKLSPISVLYK[miniPEG][miniPEG][miniPEG][miniPEG]DDDDDDDDDD; cysteine pairing not given here)”, which “Bone volume (BV)” value ([1]; 4 weeks, daily sc, 1, 10, 100 nmol/day) is on record?
A: dose dependent manner

Q: What about the BV/TV [1, 8] of the same compound?
A: dose dependent manner

Q: With `CC(C)Oc1ccc(-c2nc(-c3cccc4c3CC[C@@H]4NCCO)no2)cc1C#N` [ozanimod, Ozanimod] as the compound, how does the “Alkaline phosphatase (ALP) activity” value [4] read?
A: boost

Q: What about the Fracture healing [3] of the same compound?
A: acceleration of fracture healing

Q: Which “Bone volume (BV)” value ([1]; 4 weeks, 1 nmol/day) does the source give for “P4 D10: P4 (knuckle epitope fragment of hBMP-2) conjugated with 10 aspartate acids (HKIPKASSVPTELSAISTLYLDDDDDDDDDD; P4 D10-a BMP2 fragment)” here?
A: healing was reflected

Q: What about the BV/TV [1, 8] of the same compound?
A: dose dependent manner

Q: With “Pituitary Adenylyl Cyclase Activating Peptide [PACAP]” as the compound, how does the “Affinity for VPAC-1” value [5] read?
A: equal affinity

Q: What about the “Affinity for VPAC-2” value [6] of the same compound?
A: equal affinity

Q: Which BV/TV [1, 8] does the source give for “MGF D10: Mechano-growth factor conjugated with 10 aspartate acids, SEQ ID NO: 11 DDDDDDDDDDYQPPSTNKNTKSQRRKGSTFEEHK (Mechano-growth factor (MGF) D10, an IGF-I fragment)” here?
A: dose dependent manner

Q: For “substance P D10: substance P with 4 mini PEG linker and conjugated with 10 aspartate acids (DDDDDDDDDDRPKPQQFFGLM; 4 mini PEG linker; substance P 4 mini PEG D10 with; (10)..(11) 4 mini PEG linker)”, which BV/TV [1, 8] is on record?
A: dose dependent manner

Q: What about the “Peak load the healed femur can withstand” value ([2]; 10× (10 nmol/day), 4 weeks) of the same compound?
A: 30-35 Newtons

Q: Which results are given for “CGRP (D)E10: full natural 37 amino acid CGRP, cyclized 2-7, C-terminal 4 minipeg spacers and ten D glutamic acids”?
A: Bone density (BV/TV) at the fracture calluses [1, 9]: raises bone density; Bone volume (BV) [1, 9]: stimulates more bone to be generated; Bone strength (Max Load, Work to Fracture) ([2]; 3 weeks, 0.1, 1, 10 nmol per day sc): raises bone strength

Q: For “Ghrelin-D10: Ghrelin D10 with Serine (Ser)-3 replaced with diaminopropinoic acid”, which BV/TV [1, 8] is on record?
A: dose dependent manner
